Here are results for one substance from patent publication US8278066B2, “Truncated somatostatin receptors” (Board of Regents, The University of Texas System, priority 2001, dated 2012).

In experiment [1] the target is full length SSTR2A fusion protein (HT1080 clones 21, 3, 11) (Homo sapiens, UniProt P30874).
For experiment [2], the target named is intracellular tail minus SSTR2A fusion protein (HT1080 clones tail-1, tail-4) (Homo sapiens, UniProt P30874).
Sequence of intracellular tail minus SSTR2A fusion protein (HT1080 clones tail-1, tail-4) (P30874 1-314): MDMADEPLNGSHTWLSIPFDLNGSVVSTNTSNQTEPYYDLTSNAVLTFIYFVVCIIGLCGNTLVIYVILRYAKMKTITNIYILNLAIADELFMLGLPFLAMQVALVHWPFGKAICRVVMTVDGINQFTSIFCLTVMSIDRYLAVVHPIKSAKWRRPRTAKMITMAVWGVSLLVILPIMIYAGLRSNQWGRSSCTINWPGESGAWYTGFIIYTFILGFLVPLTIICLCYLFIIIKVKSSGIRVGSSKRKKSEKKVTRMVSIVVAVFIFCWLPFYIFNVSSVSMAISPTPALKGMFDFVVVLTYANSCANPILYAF

Sequence of full length SSTR2A fusion protein (HT1080 clones 21, 3, 11) (P30874 whole entry, the tested form may be a part): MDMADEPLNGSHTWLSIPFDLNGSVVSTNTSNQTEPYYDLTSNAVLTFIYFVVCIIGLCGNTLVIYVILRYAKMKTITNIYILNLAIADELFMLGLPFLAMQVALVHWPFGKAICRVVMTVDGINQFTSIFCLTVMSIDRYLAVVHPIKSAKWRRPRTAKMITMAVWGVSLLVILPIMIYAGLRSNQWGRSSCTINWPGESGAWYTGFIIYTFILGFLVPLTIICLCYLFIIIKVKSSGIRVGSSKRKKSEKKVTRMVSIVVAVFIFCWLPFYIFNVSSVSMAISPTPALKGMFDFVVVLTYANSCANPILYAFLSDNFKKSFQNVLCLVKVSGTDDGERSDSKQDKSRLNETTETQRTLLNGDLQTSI

For the substance ^111In-octreotide, the “Specific binding, order among clones” value in experiment [1] is on record as “greater for clone 21 than 3 than 11”. The “counts per minute bound” value in experiment [1] and in experiment [2] was “more counts per minute without the addition of cold somastotin-28 then with its addition” in each case.
